Results taken from patent publication US20100152140A1, “Method of Cancer Treatment with Naphthol Analogs” (priority 2007, published 2010).

Experiments:
H1734 cells [1] = assay: MTT viability, protection from Ro-31-8220 induced cytotoxicity; type: cell-based, human; conditions: H1734, inhibitor 2 h then 20 μM Ro-31-8220, 24 h
Protocol: (§1) The cytotoxic activity of Ro-31-8220 was also determined against the all four NSCLC cells and NHTBE cells. Briefly, the cells (2,000/well) were incubated in triplicate in 96-well plates in the presence or absence of indicated test samples in a final volume of 0.2 ml for different days at 37° C. Afterwards, we performed the MTT assay.

[2] = tested on: NSCLC cells (H1734, H226, A549, H292); assay: MTT assay, NSCLC cell lines; type: cell-based, human
Protocol: as §1

phospho-Rsk = assay: Western blot of phospho-Rsk in H1734 cells; type: cell-based, human; conditions: serum free media
Protocol: (§2) Western Blot Analysis. Protein extracts from each of NSCLC cells and the NHTBE cells, were prepared by lysing the cells in SDS lysis buffer (250 mM Tris-Cl, pH 6.5, 2% SDS, 4% β-mercaptoethanol, 0.02% bromophenol blue, 10% glycerol) containing protease and phosphatase inhibitors. Standard SDS-PAGE and Western blotting procedures were used to analyze the cell extracts. Nitrocellulose blots were probed with anti-CREB and anti-phospho-specific pSer-133 CREB (Upstate Biotechnology, Waltham, Mass.); anti-Bcl-2, anti-Bcl-XL, anti-phospho-Erk1/2, and anti-Erk1/2 (Santa Cruz Biotechnology, Santa Cruz, Calif.); and anti-phospho-Rsk and anti-Rsk (Cell Signaling Technology, Cambridge, Mass.). To detect the cleavage products of apoptosis, nitrocellulose blots were probed with anti-poly (ADP-ribose) polymerase (PARP), anti-caspase-9, and anti-caspase-3 antibodies (New England Biolabs, Beverly, Mass.). Anti-actin antibodies were purchased from Sigma-Aldrich (St. Louis, Mo.) and the caspase-3 inhibitor Ac-DEVD-CHO was obtained from Promega (Madison, Wis.).

NHTBE cells = assay: MTT assay, NHTBE cells; type: cell-based, human; conditions: NHTBE cells compared with NSCLC cells
Protocol: as §1

H1734 cells [3] = assay: Flow cytometric cell cycle analysis; type: cell-based, human; conditions: H1734, 10 μM
Protocol: Flow Cytometric Analysis. H1734 cells were first synchronized by serum starvation overnight and then exposed to Ro-31-8220 for different lengths of time in the presence of 5% serum. The cells were washed, trypsinized, and fixed in 70% ethanol for 1 h at −20° C. Finally, cells were washed with PBS, resuspended, and stained in PBS containing 25 μg of propidium iodide and 1 μg/ml RNAase a for 30 min at room temperature. The distribution of cells during the cell cycle was then analyzed with a Facscalibur flow cytometer (Becton Dickinson, Bedford, Mass.).

[4] = tested on: CRE consensus oligonucleotide binding; assay: EMSA of CRE consensus oligonucleotide binding, H1734 nuclear extracts; type: cell-based, human; conditions: serum free media
Protocol: Electrophoretic Mobility Shift Assay. Isolation of nuclear extracts, sequences, preparation of oligonucleotide probes, electrophoretic mobility shift assay (EMSA) was conducted as previously described (19).

[5] = tested on: U937 human leukemia cells; conditions: cited from earlier work
H1734 cells [6] = assay: TUNEL apoptosis assay; type: cell-based, human; conditions: H1734, 5 μM, 48 h
Protocol: Apoptosis Assay. H1734 cells (200,000) were plated in chamber slides; the next day, transfected with CREBwt, KCREB, and CREB133 DNA (100 ng/chamber), and with 100 nM siCREB. The terminal transferase dUTP nick end labeling (TUNEL) assay was performed according to the manufacturer's instructions (Promega). Briefly, the cells were fixed after 48 h of transfection in 4% formaldehyde and permeabilized with 0.5% Triton-X-100. The cells were incubated on the slides with terminal deoxynucleotidyl transferase and fluorescein-dUTP. They were then co-stained with DAPI and visualized with an Axioskop 40 fluorescence microscope (Carl Zeiss, Thornwood, N.Y.). Three fields were randomly counted for each sample. The images were captured at a magnification of 400× and stored using Axiovision software (Carl Zeiss), as described in the instructions provided by the manufacturer.

H1734 cells [7] = assay: Western blot of apoptosis cleavage products (PARP, caspase-9, caspase-3); type: cell-based, human
Protocol: as §2

H1734 cells [8] = assay: Soft agar colony assay, H1734; type: cell-based, human; conditions: H1734, 2 μM, 28 days
Protocol: (§3) Soft Agar Colony Assay. Single-cell suspensions of the H1734 and H226 cells were treated with or without different concentrations of Ro-31-8220 and then mixed with agarose to a final concentration of 0.35%. Aliquots of 1.5 ml containing 10^4 cells and 10% fetal calf serum were plated in triplicate in six-well plates over a base layer of 0.7% agarose and allowed to gel. The number of colonies that were greater than 60 μm was counted after 28 days of incubation.

pCREB = assay: Immunocytochemistry for pCREB localization in H1734 cells; type: cell-based, human; conditions: 20 μM, 4 h, serum free media
Protocol: Immunocytochemistry for CREB Localization. H1734 cells (1×10^5 cells/ml) were plated on a glass chamber slide (Falcon; BD Biosciences, San Jose, Calif.) for adherence and treated the next day for 4 h with Ro-31-8220. The chambers were removed, and cells were fixed with cold acetone. After a brief washing in PBS, the slides were blocked with 5% normal goat serum in PBS for 1 h and then incubated for 4 h with rabbit polyclonal anti-pCREB antibody (dilution, 1:100). The slides were washed, incubated with goat anti-rabbit IgG-Alexa 594 (Molecular Probes, Eugene, Oreg.) (dilution 1:100) for 1 h, and counter-stained for nuclei with 4′,6-diamidino-2-phenylindole, dihydrochloride (DAPI; 50 ng/ml) (Molecular Probes, Eugene, Oreg.) for 15 min. The slides were mounted with a mounting medium (Sigma-Aldrich), and confocal images were captured with an Olympus FV500 confocal microscope (NY) by using a Plan Apo 60× oil objective.

interleukin-6 = conditions: human cord blood-derived mast cells, mouse bone marrow-derived mast cells; cited from earlier work
CREB = assay: Western blot of p-CREB (CREB activation) in H1734 cells; type: cell-based, human; conditions: serum free media, time course and various concentrations for 4 h
Protocol: as §2

[9] = tested on: nuclear transcription factor kappa B-dependent transcription; conditions: pulmonary A549 cells; cited from earlier work
H226 cells = assay: Soft agar colony assay, H226; type: cell-based, human; conditions: H226, 2 μM, 28 days
Protocol: as §3

phospho-Erk1/2 = assay: Western blot of phospho-Erk1/2 in H1734 cells; type: cell-based, human
Protocol: as §2

**Q.** With `CC(=O)N[C@@H](CC(=O)O)C(=O)N[C@@H](CCC(=O)O)C(=O)N[C@H](C(=O)N[C@H](C=O)CC(=O)O)C(C)C` [Ac-DEVD-CHO] as the molecule, how does the “protection from Ro-31-8220 induced cytotoxicity” value (H1734 cells [1]) read?
**A.** protected the cells

**Q.** For `O=S(=O)(NCCNC/C=C/c1ccc(Br)cc1)c1cccc2cnccc12` [H-89], which “cell growth of NSCLC cell lines” value ([2]; compared with Ro-31-8220) is on record?
**A.** not significantly inhibiting the cell growth

**Q.** Which “mitochondrial activity (MTT), cell growth” value ([2]; all four NSCLC cell lines, dose-dependent) does the source give for `Cn1cc(C2=C(c3cn(CCCSC(=N)N)c4ccccc34)C(=O)NC2=O)c2ccccc21` [Ro-31-8220, 2-{1-[3-(Amidinothio)propyl]-1H-indol-3-yl}-3-(1-methylindol-3-yl)maleimide] here?
**A.** suppressed mitochondrial activity

**Q.** And the “concentration at which decrease of phospho-Rsk began” value (phospho-Rsk; 4 h)?
**A.** 5 µM

**Q.** What about the “time to suppression of phospho-Rsk” value (phospho-Rsk) of the same molecule?
**A.** ≤ 2 h

**Q.** What about the “suppression of mitochondrial activity (MTT)” value (NHTBE cells) of the same molecule?
**A.** significantly less than that in the NSCLC cells

**Q.** What about the “percentage of cells in the G2 phase” value (H1734 cells [3]; 6 h, controls 18%) of the same molecule?
**A.** 24.5%

**Q.** And the “percentage of cells in G2 phase” value (H1734 cells [3]; 24 h, controls 15%)?
**A.** 53%

**Q.** And the “CRE consensus oligonucleotide binding” value [4]?
**A.** suppressed in a time dependent and dose dependent manner

**Q.** What about the “apoptosis in U937 human leukemia cells” value [5] of the same molecule?
**A.** induces apoptosis

**Q.** What about the “proliferation of U937 human leukemia cells” value [5] of the same molecule?
**A.** suppressed the proliferation

**Q.** What about the “cells in which apoptosis was induced (TUNEL)” value (H1734 cells [6]) of the same molecule?
**A.** 52%

**Q.** What about the PARP cleavage (H1734 cells [7]; H1734, 20 μM Ro-31-8220) of the same molecule?
**A.** cleavage of a 118-kDa PARP protein into an 87-kDa fragment

**Q.** What about the caspase-9 activation (H1734 cells [7]; H1734, 20 μM Ro-31-8220, 47-kDa to 37-kDa band) of the same molecule?
**A.** time-dependent activation

**Q.** And the caspase-3 activation (H1734 cells [7]; H1734, 20 μM Ro-31-8220, 24 h)?
**A.** activation of caspase-3

**Q.** And the “decrease in colony formation” value (H1734 cells [8])?
**A.** 85%

**Q.** And the “nuclear pCREB localization” value (pCREB)?
**A.** induced the nuclear disappearance of pCREB

**Q.** And the “autocrine growth factor interleukin-6” value (interleukin-6)?
**A.** suppress

**Q.** What about the “CREB activation (p-CREB)” value (CREB) of the same molecule?
**A.** substantially suppressed

**Q.** What about the “NF-kappa B-dependent transcription” value [9] of the same molecule?
**A.** suppress

**Q.** What about the “decrease in colony formation” value (H226 cells) of the same molecule?
**A.** 85%

**Q.** What about the “time to start of decrease of phospho-Erk1/2 expression” value (phospho-Erk1/2) of the same molecule?
**A.** ≤ 30 min

**Q.** And the “concentration at which decrease of phospho-Erk1/2 began” value (phospho-Erk1/2; 4 h)?
**A.** 5 µM
